Test results taken from patent US20060084694A1, “Ligand-dependant activation of Nur77 and uses thereof” (priority 2004, published 2006).

What was measured:
GAL4-Nur77(E/F) = target: T1, GAL4-Nur77(E/F) (Homo sapiens, UniProt P22736); assay: GAL4-Nur77(E/F)/pGAL4 transactivation in Panc-28 cells; format: cell-based; settings: 5-15 μM (FIG. 2A)
T1 construct: a chimeric GAL4-Nur77(E/F) construct containing only the E/F domain of Nur77; expressed in transfected cells; host or cells: Panc-28
Text: (§1) Transfection assays were essentially carried out as previously described using Lipofectamine Plus reagent (Invitrogen, Carlsbad, Calif.) and luciferase activities were normalized to β-galactosidase activity. […] Results are expressed as means±SE for at least three replicate determinations for each treatment group.
(§2) (FIG. 2A). […] The structural specificity of Nur77 antagonists was further investigated using meta-hydroxy (DIM-C-mPhOH) and ortho-hydroxy (DIM-C-oPhOH) analogs. […] Thus, activation of Nur77 by C-DIMs was E/F domain-dependent and Nur77 activation was inhibited by DIM-C-pPhOH; moreover, both activation and inhibition of Nur77-mediated transactivation was dependent on the structure of the C-DIM compounds.

PPARγ = target: T2, PPARγ (Homo sapiens, UniProt P37231); settings: Qin, et al., 2004, Chintharlapalli; cited from earlier work
T2 sequence (P37231 1-505): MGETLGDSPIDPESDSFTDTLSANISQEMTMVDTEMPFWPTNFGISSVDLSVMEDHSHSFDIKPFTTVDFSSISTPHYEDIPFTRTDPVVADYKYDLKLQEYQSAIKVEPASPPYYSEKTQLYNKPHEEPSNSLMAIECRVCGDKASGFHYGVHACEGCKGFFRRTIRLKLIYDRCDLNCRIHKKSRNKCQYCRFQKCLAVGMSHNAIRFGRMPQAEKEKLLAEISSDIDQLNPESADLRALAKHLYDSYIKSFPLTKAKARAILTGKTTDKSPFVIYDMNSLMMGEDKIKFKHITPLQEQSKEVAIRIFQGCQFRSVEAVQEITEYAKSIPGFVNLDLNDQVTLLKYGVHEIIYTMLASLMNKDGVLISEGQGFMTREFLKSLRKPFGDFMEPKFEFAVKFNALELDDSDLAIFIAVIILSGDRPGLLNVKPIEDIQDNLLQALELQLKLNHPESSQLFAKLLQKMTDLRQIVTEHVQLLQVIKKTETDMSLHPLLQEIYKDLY

TRAIL mRNA = TRAIL mRNA in Panc-28 cells (RT-PCR); format: cell-based; settings: Panc-28 cells (FIG. 6B)
Description: cDNA was prepared from the Panc-28 cell line using a combination of oligodeoxythymidylic acid (Oligo d(T)16), and dNTP mix (Applied Biosystems) and Superscript II (Invitrogen). Each PCR was carried out in triplicate in a 20-μl volume using Sybr Green Mastermix (Applied Biosystems) for 15 min at 95° C. for initial denaturing, followed by 40 cycles of 95° C. for 30 s and 60° C. for 1 min in the ABI Prism 7700 Sequence Detection System. The ABI Dissociation Curves software was used following a brief thermal protocol (95° C. 15 s and 60° C. 20 s, followed by a slow ramp to 95° C.) to control for multiple species in each PCR amplification. Values for each gene were normalized to expression levels of TBP. The sequences of the primers used for RT-PCR were as follows: TRAIL forward, 5′-CGTGTACTTTACCAACGAGCTGA-3′, reverse, 5′-ACGGAGTTGCCACTTGACTTG-3′; and TBP forward, 5′-TGCACAGGAGCCAAGAGTGAA-3′, reverse, 5′-CACATCACAGCTCCCCACCA-3′.

[1] = target: T3, GAL4-Nur77 (full length) chimera (Homo sapiens, UniProt P22736); assay: GAL4-Nur77 (full length)/pGAL4 luciferase transactivation in Panc-28 cells; format: cell-based; settings: for luciferase activity, GAL4-Nur77 (full length)/pGAL4: Panc-28 cells, 10 or 20 μM (FIG. 1B); for Nur77 activation, structure dependence (isomers and ring-substituted analogs): FIG. 1D, analogs data not shown
T3 construct: Panc-28 cells transfected with a GAL4-Nur77 (full length) chimera; expressed in transfected cells; host or cells: Panc-28
T3 sequence (P22736 whole entry, change not shown, the tested form may be a part): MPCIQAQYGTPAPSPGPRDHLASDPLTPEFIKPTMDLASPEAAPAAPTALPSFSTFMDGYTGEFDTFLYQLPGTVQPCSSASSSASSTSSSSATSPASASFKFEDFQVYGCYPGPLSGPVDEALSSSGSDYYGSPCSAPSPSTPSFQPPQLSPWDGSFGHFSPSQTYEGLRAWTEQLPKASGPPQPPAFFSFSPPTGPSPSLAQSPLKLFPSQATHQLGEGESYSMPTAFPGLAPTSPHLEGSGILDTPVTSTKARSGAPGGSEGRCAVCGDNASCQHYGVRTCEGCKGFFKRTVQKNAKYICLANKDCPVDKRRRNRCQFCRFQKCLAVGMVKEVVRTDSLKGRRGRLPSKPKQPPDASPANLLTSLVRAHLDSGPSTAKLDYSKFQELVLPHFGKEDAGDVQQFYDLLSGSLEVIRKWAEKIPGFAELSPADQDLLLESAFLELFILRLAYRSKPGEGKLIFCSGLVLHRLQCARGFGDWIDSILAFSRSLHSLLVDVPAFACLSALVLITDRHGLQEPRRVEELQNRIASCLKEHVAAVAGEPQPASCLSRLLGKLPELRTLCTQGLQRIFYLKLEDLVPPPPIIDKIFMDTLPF
Text: Structure-dependent activation of Nur77 by a series of eleven C-substituted DIMs was investigated in Panc-28 cells transfected with a GAL4-Nur77 (full length) chimera and a reporter construct containing five GAL4 response elements linked to a luciferase reporter gene (pGAL4).
as §1

Nur77 = Nur77 (Homo sapiens, UniProt P22736); assay: Nur77 subcellular localization and level (immunostaining, Western blot of cytosolic and nuclear extracts); settings: for Nur77 translocation, Western blot of cytosolic and nuclear extracts: Panc-28, 10 or 20 μM, 12 hr (FIG. 4B); for Nur77 localization by immunostaining: Panc-28 cells, 10 μM, 6 hr (FIG. 4A)
Chain of Nur77 (P22736 whole entry, the tested form may be a part): as the sequence (P22736 whole entry, change not shown, the tested form may be a part) above
Description: The different cancer cell lines were cultured under standardized conditions. Panc-28 cells were grown in DMEM:Ham's F-12 media containing 2.5% charcoal stripped fetal bovine serum, and cells were treated with DMSO and different concentrations of test compounds as indicated. […] For all other assays, cytosolic, nuclear fractions, or whole cell lysates were obtained at various time points, analyzed by Western blot analysis, and bands were quantitated as previously described (Qin, et al., 2004; Abdelrahim, et al., 2002). Immunocytochemical analysis was determined using Nur77 antibodies as previously reported (Abdelrahim, et al., 2002).
Sp1 is a nuclear protein and was used as a control to ensure efficient separation of the two extracts and Sp1 was identified only in the nuclear fraction.

GAL4-Nur77 = target: T4, GAL4-Nur77 (Homo sapiens, UniProt P22736); assay: Nur77 antagonist assay: cotreatment with Nur77 agonists, GAL4-Nur77/pGAL4 in Panc-28 cells; format: cell-based; settings: for Nur77 antagonist activity (inhibition of agonist-induced transactivation): Panc-28, cotreatment with Nur77 agonists, 10 or 20 μM (FIG. 2C-2E)
T4 construct: expressed in transfected cells; host or cells: Panc-28
T4 sequence (P22736 whole entry, the tested form may be a part): as the sequence (P22736 whole entry, change not shown, the tested form may be a part) above
Text: as §1, §2

[2] = target: VP-Nur77 (ligand binding domain) / GAL4-coactivator chimeras (Homo sapiens, UniProt P22736); settings: Panc-28, VP-Nur77
Chain of VP-Nur77 (ligand binding domain) / GAL4-coactivator chimeras (P22736 360-595 limits assumed, change not shown): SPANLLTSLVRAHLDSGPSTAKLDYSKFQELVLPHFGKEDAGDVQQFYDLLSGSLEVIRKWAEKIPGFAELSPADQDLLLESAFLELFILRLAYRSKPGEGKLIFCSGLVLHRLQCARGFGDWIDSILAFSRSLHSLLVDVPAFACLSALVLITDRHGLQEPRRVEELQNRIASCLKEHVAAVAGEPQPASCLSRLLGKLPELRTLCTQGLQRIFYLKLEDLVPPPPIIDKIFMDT
Description: Panc-28 cells were plated in 12-well plates at 1×10^5 cells/well in DME-F12 media supplemented with 2.5% charcoal-stripped FBS. After growth for 16 hr, various amounts of DNA, i.e. Gal4Luc (0.4 μg), β-gal (0.04 μg), VP-Nur77(E/F) (0.04 μg), pM SRC1 (0.04 μg), pMSRC2 (0.04 μg), pMSRC3 (0.04 μg), pMDRIP205 (0.04 μg) and pMCARM-1 (0.04 μg) were transfected by Lipofectamine (Invitrogen) according to the manufacturer's protocol. After 5 hr of transfection, the transfection mix was replaced with complete media containing either vehicle (DMSO) or the indicated ligand for 20-22 hr. Cells were then lysed with 100 ml of 1X reporter lysis buffer, and 30 μl of cell extract were used for luciferase and β-Gal assays. Lumicount was used to quantitate luciferase and β-Gal activities, and the luciferase activities were normalized to β-Gal activity.
Ligand-induced Nur77-coactivator interactions were determined using a construct (pGAL4) containing 5 GAL4 response elements. Coactivators used in this study include SRC-1, SRC-2 (TIFII), SRC-3 (AIB1), PGC-1, TRAP220 and CARM-1. A GAL4-repressor (SMRT) chimera was also included in the assay.

Panc-28 cells = assay: Annexin V-Alexa-488 / propidium iodide apoptosis assay in Panc-28 cells; format: cell-based; settings: for annexin V-stained cells: Panc-28, 10 and 20 μM, 8 and 12 hr (FIG. 5C)
Description: Detection of phosphatidylserine on the outside of the cell membrane, a unique and early marker for apoptosis, was performed using a commercial kit (Vybrant Apoptosis Assay Kit #2; Molecular Probes, Eugene, Oreg.). […] Binding of annexin V-Alexa-488 conjugate and propidium iodide (PI) was performed according to the manufacturer's instructions. After binding and washing, cells were observed under phase contrast and epifluorescent illumination using a 495-nm excitation filter and a 520-nm absorption filter for annexin V-Alexa 488 and a 546-nm excitation filter and a 590-nm absorption filter for PI. Healthy cells were unstained by either dye; cells in early stages of apoptosis were stained only by annexin V, while dead cells were stained by annexin V and PI. The assay was repeated on three separate Panc-28 cell preparations.

Panc-28 cell xenografts = assay: Tumor growth in athymic nude mice bearing Panc-28 cell xenografts; format: in vivo, athymic nude mice (BALB/c)
Description: Male athymic nude mice (BALB/c, ages 8-12 weeks) were purchased from Harlan (Indianapolis, Ind.). The mice were housed and maintained in laminar flow cabinets under specific pathogen-free conditions. Panc-28 cells were harvested from subconfluent cultures by trypsinization and washed. Panc-28 cells (2×10^6) were injected subcutaneously into each mouse on both flanks using a 30-gauge needle. The tumors were allowed to grow for 11 days until tumors were palpable. Mice were then randomized into two groups of seven mice per group and dosed by oral gavage with either corn oil or DIM-C-pPhOCH3 every second day. The volume of corn oil was 75 μl, and the dose of DIM-C-pPhOCH3 was 25 mg/kg/day. The mice were weighed, and tumor areas were also measured ever other day. Final body and tumor weights were determined at the end of the dosing regiment; and selected tissues were further examined by routine H & E staining and immunohistochemical analysis for apoptosis using the TUNEL assay.

PARP cleavage = PARP cleavage in Panc-28 cells (Western blot); format: cell-based; settings: for effect of leptomycin B on PARP cleavage induced by Nur77 agonists: Panc-28, LMB 1 ng/ml cotreatment (FIG. 5E)
Description: The different cancer cell lines were cultured under standardized conditions. Panc-28 cells were grown in DMEM:Ham's F-12 media containing 2.5% charcoal stripped fetal bovine serum, and cells were treated with DMSO and different concentrations of test compounds as indicated. For longer term cell survival studies, the media was changed every second day, and values were presented for a 4 day experiment. For all other assays, cytosolic, nuclear fractions, or whole cell lysates were obtained at various time points, analyzed by Western blot analysis, and bands were quantitated as previously described (Qin, et al., 2004; Abdelrahim, et al., 2002). Immunocytochemical analysis was determined using Nur77 antibodies as previously reported (Abdelrahim, et al., 2002).

T1 sequence (P22736 360-595 limits assumed): as the sequence (P22736 360-595 limits assumed, change not shown) above

In the case of `c1ccc(C(c2c[nH]c3ccccc23)c2c[nH]c3ccccc23)cc1` [DIM-C-Ph], the “luciferase activity, GAL4-Nur77(E/F)/pGAL4” value (GAL4-Nur77(E/F)) is given as “induced luciferase activity”, the PPARγ activation (PPARγ) is given as “PPARγ-inactive” and the “TRAIL mRNA levels” value (TRAIL mRNA) is given as “induced TRAIL mRNA levels”. For the same compound, the “luciferase activity, GAL4-Nur77 (full length)/pGAL4” value [1] was “activated luciferase activity”, the “Nur77 translocation, Western blot of cytosolic and nuclear extracts” value (from here on “Nur77 translocation, Western blot”) (Nur77) was “translocation from the nucleus is not observed” and the “Nur77 localization by immunostaining” value (Nur77) was “Nur77 remained in the nucleus”.

With `COc1cccc(C(c2c[nH]c3ccccc23)c2c[nH]c3ccccc23)c1` [DIM-C-mPhOCH3] the “Nur77 activation, structure dependence (isomers and ring-substituted analogs)” value [1] was “Only the para-substituted compound was active”.

With `Oc1cccc(C(c2c[nH]c3ccccc23)c2c[nH]c3ccccc23)c1` [DIM-C-mPhOH] the “Nur77 antagonist activity (inhibition of agonist-induced transactivation)” value (GAL4-Nur77) was “did not inhibit”.

In the case of `COc1ccccc1C(c1c[nH]c2ccccc12)c1c[nH]c2ccccc12` [DIM-C-oPhOCH3], the “Nur77 activation, structure dependence (isomers and ring-substituted analogs)” value [1] is reported as “Only the para-substituted compound was active”.

In the case of `Oc1ccccc1C(c1c[nH]c2ccccc12)c1c[nH]c2ccccc12` [DIM-C-oPhOH], the “Nur77 antagonist activity (inhibition of agonist-induced transactivation)” value (GAL4-Nur77) is reported as “did not exhibit Nur77 antagonist activity” and the “toxicity in cotreated cells” value (GAL4-Nur77; high doses (20 μM) of both Nur77 agonists and DIM-C-oPhOH) is reported as “toxic”.

In the case of `FC(F)(F)c1ccc(C(c2c[nH]c3ccccc23)c2c[nH]c3ccccc23)cc1` [DIM-C-pPhCF3], the “luciferase activity, GAL4-Nur77(E/F)/pGAL4” value (GAL4-Nur77(E/F)) is listed as “induced luciferase activity”, the PPARγ activation (PPARγ) is listed as “also activates PPARγ” and the “luciferase activity, GAL4-Nur77 (full length)/pGAL4” value [1] is listed as “activated luciferase activity”. The “Nur77 translocation, Western blot” value (Nur77) was “translocation from the nucleus is not observed”, the “Nur77 localization by immunostaining” value (Nur77) was “Nur77 remained in the nucleus” and the “transactivation with GAL4-CARM-1” value [2] was “slightly activated”.

For `COc1ccc(C(c2c[nH]c3ccccc23)c2c[nH]c3ccccc23)cc1` [DIM-C-pPhOCH3], the “annexin V-stained cells” value (Panc-28 cells) was “time- and dose-dependent increase”, the “PI staining after 6 hr” value (Panc-28 cells; Panc-28, 6 hr) was “minimal PI staining” and the “annexin V-stained cells after 6 hr” value (Panc-28 cells; Panc-28, 6 hr) was “significantly increased”. The “PI staining after 12 hr” value (Panc-28 cells; Panc-28, 12 hr) was “PI staining was increased”, the “animal weight gain and organ weights” value (Panc-28 cell xenografts; 25 mg/kg/day vs corn oil) was “comparable” and the tumor weights (Panc-28 cell xenografts; 25 mg/kg/day, oral gavage (FIG. 7B)) was “parallel decrease in tumor weights”. The “tumor growth (area)” value (Panc-28 cell xenografts; 25 mg/kg/day, oral gavage every second day (FIG. 7A)) was “significantly inhibited tumor growth”, the “brain regions by H & E staining” value (Panc-28 cell xenografts; treated vs corn oil) was “did not indicate any differences” and the “luciferase activity, GAL4-Nur77(E/F)/pGAL4” value (GAL4-Nur77(E/F)) was “induced luciferase activity”. The PPARγ activation (PPARγ) was “PPARγ-inactive”, the “TRAIL mRNA levels” value (TRAIL mRNA) was “induced TRAIL mRNA levels” and the “Nur77 activation, structure dependence (isomers and ring-substituted analogs)” value [1] was “active”. The “luciferase activity, GAL4-Nur77 (full length)/pGAL4” value [1] was “activated luciferase activity”, the “Nur77 translocation, Western blot” value (Nur77) was “translocation from the nucleus is not observed” and the “Nur77 localization by immunostaining” value (Nur77) was “Nur77 remained in the nucleus”. For the same compound, the “transactivation with GAL4-CARM-1” value [2] was “slightly activated” and the “transactivation with GAL4-SRC-3” value [2] was “induced transactivation”.

For `CC[C@@]1(O)C(=O)OCc2c1cc1n(c2=O)Cc2cc3ccccc3nc2-1` [camptothecin, reference compound], the “annexin V-stained cells” value (Panc-28 cells) was “comparable”.

In the case of `CCC(=C/[C@H](C)C/C=C/C(C)=C/[C@@H](C)C(=O)[C@@H](C)[C@H](O)[C@@H](C)C/C(C)=C/C(=O)O)/C=C/[C@@H]1OC(=O)C=C[C@@H]1C` [leptomycin B, Leptomycin B], the “PARP cleavage, LMB alone” value (PARP cleavage; Panc-28, 1 ng/ml (FIG. 5E)) is reported as “slightly induced PARP cleavage”, the “effect of leptomycin B on PARP cleavage induced by Nur77 agonists” value (PARP cleavage) is reported as “not affected” and the “effect of leptomycin B on PARP cleavage induced by Nur77 agonists” value (PARP cleavage; listed as LMB) is reported as “enhanced PARP cleavage”.
